Laboratory results published in patent US20240277899A1, “PRODUCTION METHOD OF MYOCARDIAL CELL LAYER, MYOCARDIAL CELL LAYER, AND USE THEREOF” (FUJIFILM Corporation, priority 2021, published 2024).
Like-named read-outs stand apart in the source and are kept apart here.

System: myocardial cell layer of myocardial cell C (iCell Cardiomyocytes^2, purity 80%)
Assay: Drug screening: electrical signal of spontaneous beating of the myocardial cell layer measured by MEA (QT interval, beat rate, cardiotoxicity)
Conditions: for myocardial beat rate reaction, TW compared with Control: TW layer versus Control layer; for myocardial beat rate on addition of the drug: MEA 5 minutes after adding drug, Day 17
Experimental: iCell (registered trademark) Cardiomyocytes^2 was thawed according to “iCell Cardiomyocytes^2 User's Guide” to prepare myocardial cells C (purity of the myocardial cells 100%). In addition, myocardium-derived fibroblasts (NHCF-V human cardiac fibroblasts, Lonza, CC-2904) were added to the myocardial cells C to prepare myocardial cells with a purity of 25%, 50%, and 75%, respectively. Each of the prepared myocardial cells was dispersed at 1×10^6 cells/cm^2 and scattered on the seeding surface of the cells of the culture container 3 prepared in Example 1 to form a myocardial cell layer. The cells were cultured in the same manner as in Example 2, a beating frequency was measured, and stability of the TW was evaluated.
Using the myocardial cell C (the myocardial cell with a purity of 80%, which was obtained in the same manner as in Example 4) and the above-described culture container 3 (biodegradable fiber material), a myocardial cell layer was formed in the same manner as in Example 4. […] In addition, the beating frequency was measured up to Day 14 (TW). As a control, the beating frequency was measured in the same manner for those (Control) in which the TW was stopped by exchanging the culture medium with a culture medium at 4° C. on Day 2.
A culture container 3 (biodegradable fiber material) was created in the same manner as in Example 10. In addition, a culture container 3 (PC) was created in the same manner as for the culture container 3 (biodegradable fiber material), using polycarbonate (PC) porous membrane (Thermo Fisher Scientific, Inc., Nunc™ Polycarbonate Cell Culture Cell Inserts in Multi-Well Plates 140644) as a scaffold material. A myocardial cell layer was formed in the same manner as in Example 2, using the myocardial cells B, the culture container 3 (biodegradable fiber material), and the culture container 3 (PC). […] After Day 14, the electrical signal of myocardial spontaneous beating was measured by MEA by stopping the TW by exchanging the culture medium with a culture medium at 4° C. Specifically, data of extracellular Field Potentials (FPs) was recorded on a multielectrode array (MEA) system (USB-ME64-System, Multi Channel Systems, Germany).
A culture container 3 (biodegradable fiber material) was created in the same manner as in Example 10. Using the myocardial cell C (the myocardial cell with a purity of 80%, which was obtained in the same manner as in Example 4) and the above-described culture container 3 (biodegradable fiber material), a myocardial cell layer was formed in the same manner as in Example 4. Those in which the generated TW was stably maintained up to Day 14 (TW), and those in which TW was stopped by exchanging the culture medium with a culture medium at 4° C. on Day 2 (Control), that is, a total of two kinds were produced.

Row | Compound | QT interval as the concentration increased | QT interval extension, TW compared with Control | myocardial beat rate reaction, TW compared with Control (MEA 5 minutes after drug) | QT interval extension, TW compared with Control (TW layer (TW maintained up to Day 14) versus Control layer (TW stopped on Day 2), MEA 5 minutes after drug) | myocardial beat rate on addition of the drug
1 | CC(=O)Oc1ccccc1C(=O)O [aspirin] | decreased | almost the same | almost the same |  | 
2 | Cc1cccc(C)c1OCC(C)N (centres unmarked) [mexiletine] |  |  |  | smaller than Control | 
3 | COc1ccc(CCN(C)CCCC(C#N)(c2ccc(OC)c(OC)c2)C(C)C)cc1OC (centres unmarked) [verapamil] |  |  | more sensitive in reaction to verapamil as compared with Control |  | increased
4 | CC(C)NCC(O)c1ccc(O)c(O)c1 (centres unmarked) [isoproterenol] |  |  | more sensitive in reaction to isoproterenol as compared with Control |  | increased
